Data on eleven compounds can be found in PMC9949698, “Visible-Light-Controlled Histone Deacetylase Inhibitors for Targeted Cancer Therapy” (Journal of Medicinal Chemistry, 2023).

Data set [1] is described as follows: UV–vis spectra and optimal isomerization wavelengths. It counts as physicochemical. Conditions: for λcis (optimal wavelength trans to cis) / λtrans (optimal wavelength cis to trans): UV–vis at 25–50 μM in DMSO, Teleopto plates (Table 1). Here is the method:
Ultraviolet–visible (UV–vis) spectra were recorded using a Tecan Spark 20M Multimode Microplate reader. Samples (200 μL of compound solution/well) were prepared at […] in DMSO. Samples were measured between 300 and 800 nm with 2 nm fixed intervals in 96-well transparent plates. Illumination at different wavelengths was performed for 2 min using 96-well LED array plates (LEDA Teleopto) placed below the samples. […] Potencies were measured using a Thorlabs PM100D power energy meter connected with a standard photodiode power sensor (S120VC).

A further data set relates to HeLa cells. In words: HeLa cell viability, MTS assay, dark or preillumination. The data set is classed as cell-based. The following applies: for IC50: Homo sapiens, HeLa; for IC50(dark)/IC50(light): Table 5; for activity under dark and illumination conditions: in words. Here is the method: We then proceeded to evaluate the effect of the compounds in a viability assay against HeLa cells.
HeLa, MCF7, and HT29 cells were maintained in adherent cultures in DMEM supplemented with 10% FBS. KG1 cells were maintained in a suspension culture in IMDM supplemented with 20% FBS.
Stock solutions of the compounds were heated to 60 or 80 °C to obtain solutions with the maximum amount of the trans isomer (dark). […] The solutions were then serially diluted with DMEM to give 20 times the desired final concentration, maintaining DMSO at 10%.
Cells were seeded in 96-well black flat bottom plates with a clear bottom at a density of 5 × 10^3 cells/well (HeLa) or 1 × 10^4 cells/well (MCF7, HT29, and KG1), in a volume of 95 μL.
Viability of HeLa, MCF7, and […] cells was determined with a CellTiter 96 assay (Promega), according to the manufacturer’s instructions. Briefly, 20 μL of CellTiter 96 reagent was added to each well, the plates were incubated at 37 °C for 2 h, and the absorbance at 490 nm was recorded. Viability is expressed as a percentage with respect to the nontreated cells.
For orientation: Tetrazolium dyes change colour on reduction, which living cells bring about.

The next data set concerns the target T1, human recombinant HDAC1 (Homo sapiens, UniProt Q13547).
T1 construct: purchased BPS Bioscience
Put plainly: Fluorogenic assay with human recombinant HDAC1, dark or illumination. The data set is classed as biochemical. Conditions: for relative activity of cis and trans forms: dark vs light, in words. How it is done: To study the inhibition of HDAC enzymes by the compounds, we used a fluorogenic assay with human recombinant HDAC1.[32] The enzyme was incubated with an acetylated substrate and each inhibitor for 1 h at room temperature, under either dark or light conditions. We opted for illumination throughout the incubation period to maintain the maximum proportion of cis under light conditions. […] Then, the deacetylated substrate generated a fluorescent coumarin after incubation of the mixture with trypsin at 37 °C for 20 min.
Stock solutions of the compounds were diluted to 1 mM in DMSO and then heated to 60 or 80 °C to obtain solutions with the maximum amount of the trans isomer (dark). […] The 1 mM solutions were then serially diluted with HDAC buffer to 10 times the desired concentration, maintaining DMSO at 10%.
In control wells without the compound, inhibitor, or enzyme, HDAC buffer was added instead. […] Then, 50 μL of the stop solution was added and the plates were incubated at 37 °C for 20 min in the dark. Fluorescence was measured at a λem of 460 nm and a λex of 380 nm. Enzyme activity is expressed as a percentage with respect to the nontreated cells, after subtracting the blank (well with no enzyme and no compound).

The nature of data set [2]: E/Z composition under light or temperature conditions by HPLC. It counts as physicochemical.
Setting [3] is: UV–vis spectra at 25–50 μM in DMSO (Table 1).
Where [4] appears, read: preillumination 380 nm, 48 h, read-out: IC50 light (concentration that reduces cell viability by half).
[5] abbreviates: supplementary CSV, read-out: HeLa MTS IC50 light.
[6] abbreviates: dark vs 365 or 380 nm (Table 2), fold.
Setting [7] is: dark, 1 h at room temperature (Table 2), read-out: IC50 dark.
Setting [8] is: illumination 365 or 380 nm, 1 h at room temperature (Table 2), read-out: IC50 light.
Where [9] appears, read: HPLC at isosbestic point (310–338 nm), 100 μM in DMSO after illumination with λcis (Table 1).
The mark [10] stands for this setting: HPLC at isosbestic point (310–338 nm), 100 μM in DMSO after illumination with λtrans (Table 1).
Setting [11] is: supplementary CSV, read-out: HDAC1 IC50 light.
Setting [12] is: HPLC at isosbestic point (290–336 nm), 100 μM in DMSO after illumination with λcis (Table 3).
Setting [13] is: HPLC at isosbestic point (290–336 nm), 100 μM in DMSO after illumination with λtrans (Table 3).
Where [14] appears, read: UV–vis spectra at 25–100 μM in DMSO (Table 3).
The mark [15] stands for this setting: dark (Table 4), read-out: IC50 dark.
The mark [16] stands for this setting: supplementary CSV, read-out: HDAC1 IC50 dark.

Read-outs that look alike come from different tables or passages of the source.

T1 sequence (Q13547 whole entry): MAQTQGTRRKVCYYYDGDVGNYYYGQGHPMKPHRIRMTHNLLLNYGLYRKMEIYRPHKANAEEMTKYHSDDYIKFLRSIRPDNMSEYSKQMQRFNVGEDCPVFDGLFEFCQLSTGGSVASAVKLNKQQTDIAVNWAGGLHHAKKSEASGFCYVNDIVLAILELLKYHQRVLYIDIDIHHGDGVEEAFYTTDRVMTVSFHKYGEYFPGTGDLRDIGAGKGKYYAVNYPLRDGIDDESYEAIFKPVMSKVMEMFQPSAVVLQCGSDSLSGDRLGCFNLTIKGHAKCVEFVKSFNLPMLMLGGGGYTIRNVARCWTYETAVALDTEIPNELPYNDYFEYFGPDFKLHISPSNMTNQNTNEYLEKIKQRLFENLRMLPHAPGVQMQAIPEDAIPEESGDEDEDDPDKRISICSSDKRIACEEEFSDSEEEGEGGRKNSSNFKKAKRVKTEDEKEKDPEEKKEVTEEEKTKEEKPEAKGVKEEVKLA

Regarding `CN(C)c1ccc(/N=N/c2ccc(/C=C/C(=O)Nc3ccccc3N)cc2)cc1` [Compound 12, (E)-N-(2-Aminophenyl)-3-(4-((E)-(4-(dimethylamino)phenyl)diazenyl)phenyl)acrylamide], the “λcis (optimal wavelength trans to cis)” value in data set [1] is 470 nm. Moreover, the λmax trans in data set [1] (setting [3]) worked out at 462 nm.

For `COc1ccc(/N=N/c2ccc(C(=O)NO)cc2)cc1` [Compound 17, (E)-N-Hydroxy-4-((4-methoxyphenyl)diazenyl)benzamide], the IC50 is approximately 25 µM in the data set on HeLa cells (dark, 48 h, read-out: IC50 dark (concentration that reduces cell viability by half)); approximately 25 µM in the data set with HeLa cells (setting [4]); 25 µM in the data set with HeLa cells (supplementary CSV, read-out: HeLa MTS IC50 dark); 25 µM in the data set with HeLa cells (setting [5]); 0.42 µM at human recombinant HDAC1 (setting [7]); 2.9 µM on human recombinant HDAC1 (setting [8]). Moreover, the “IC50(dark)/IC50(light)” value is “≈1” in the data set on HeLa cells and 0.14 on human recombinant HDAC1 (setting [6]). Also, at human recombinant HDAC1, the “relative activity of cis and trans forms” value is on record as “more active in the trans form than in the cis form”. For the same compound, the “% cis at λcis” value in data set [2] (setting [9]) is 84%. The “% trans at λtrans” value in data set [2] (setting [10]) is given as 92%. In addition, the “λcis (optimal wavelength trans to cis)” value in data set [1] came to 380 nm. In data set [1], the “λtrans (optimal wavelength cis to trans)” value is 550 nm. In data set [1] (setting [3]), the λmax trans worked out at 360 nm.

Consider `COc1ccc(/N=N/c2ccc(C(=O)Nc3ccccc3N)cc2)cc1` [Compound 18, (E)-N-(2-Aminophenyl)-4-((4-methoxyphenyl)diazenyl)benzamide], for which the IC50 with HeLa cells (setting [4]) was approximately 19 µM; in the data set on HeLa cells (setting [5]) it was 19 µM; on human recombinant HDAC1 (setting [7]), 1.2 µM; at human recombinant HDAC1 (setting [8]) it was 0.2 µM. The “IC50(dark)/IC50(light)” value in the data set on HeLa cells is listed as more than 5.3; on human recombinant HDAC1 (setting [6]), 6. Moreover, in data set [2] (setting [9]), the “% cis at λcis” value is on record as 82%. Moreover, the “% trans at λtrans” value in data set [2] (setting [10]) stood at 79%. Besides, in data set [1], the “λcis (optimal wavelength trans to cis)” value was determined as 380 nm. In data set [1], the “λtrans (optimal wavelength cis to trans)” value stood at 550 nm. Further, in data set [1] (setting [3]), the λmax trans was 364 nm.

`CN(C)c1ccc(/N=N/c2ccc(C(=O)NO)cc2)cc1` [Compound 19, (E)-4-((4-(Dimethylamino)phenyl)diazenyl)-N-hydroxybenzamide] had a λmax trans in data set [1] (setting [3]) of 446 nm.

In the case of `COc1ccc(/N=N/c2ccc(CCC(=O)Nc3ccccc3N)cc2)cc1` [Compound 21, (E)-N-(2-Aminophenyl)-3-(4-((4-methoxyphenyl)diazenyl)phenyl)propanamide], at human recombinant HDAC1 (setting [6]), the “IC50(dark)/IC50(light)” value was more than 2.9. Moreover, the “relative activity of cis and trans forms” value at human recombinant HDAC1 is given as “active only in the cis form”. Moreover, the IC50 at human recombinant HDAC1 (setting [7]) was more than 10 µM. In addition, the IC50 at human recombinant HDAC1 (setting [8]) was determined as 3.4 µM. Also, in data set [2] (setting [9]), the “% cis at λcis” value is listed as 87%. Also, in data set [2] (setting [10]), the “% trans at λtrans” value was determined as 84%. Further, in data set [1], the “λcis (optimal wavelength trans to cis)” value amounted to 380 nm and the “λtrans (optimal wavelength cis to trans)” value was 550 nm. This compound registered a λmax trans in data set [1] (setting [3]) of 354 nm.

For the compound `COc1cc(Cl)c(/N=N/c2c(Cl)cc(/C=C/C(=O)Nc3ccccc3N)cc2Cl)c(Cl)c1` [Compound 32b, (E)-N-(2-Aminophenyl)-3-(3,5-dichloro-4-((E)-(2,6-dichloro-4-methoxyphenyl)diazenyl)phenyl)acrylamide], the IC50 at human recombinant HDAC1 (continuous illumination 550 nm (Table 4), read-out: IC50 light) was approximately 10 µM. For the same compound, the IC50 on human recombinant HDAC1 (setting [11]) was determined as 10 µM. The “% cis at λcis” value in data set [2] (setting [12]) was found to be 45%. Moreover, the “% trans at λtrans” value in data set [2] (setting [13]) came out at 88%. In addition, in data set [1] (setting [14]), the λcis worked out at 550 nm, the λmax cis is reported as 452 nm, the λmax trans is reported as 338 nm and the λtrans turned out to be 455 nm.

With `COc1ccc(/N=N/c2ccc(/C=C/C(=O)Nc3ccccc3N)cc2F)c(F)c1` [Compound 32d, (E)-N-(2-Aminophenyl)-3-(3-fluoro-4-((E)-(2-fluoro-4-methoxyphenyl)diazenyl)phenyl)acrylamide], at human recombinant HDAC1 (Table 4), the “IC50(dark)/IC50(light)” value is listed as “≈22”. The IC50 at human recombinant HDAC1 (setting [15]) was approximately 10 µM. Also, on human recombinant HDAC1 (setting [16]), the IC50 turned out to be 10 µM. For the same compound, the “% cis at λcis” value in data set [2] (setting [12]) was 67%. In data set [2] (setting [13]), the “% trans at λtrans” value is given as 59%. In data set [1] (setting [14]), this compound gave a λcis of 380 nm, a λmax cis of 448 nm, a λmax trans of 388 nm and a λtrans of 550 nm.

Regarding `COc1ccc(/N=N/c2ccc(/C=C/C(=O)Nc3ccccc3N)cc2Cl)c(Cl)c1` [Compound 32e, (E)-N-(2-Aminophenyl)-3-(3-chloro-4-((E)-(2-chloro-4-methoxyphenyl)diazenyl)phenyl)acrylamide], the IC50 at human recombinant HDAC1 (continuous illumination 380 nm (Table 4), read-out: IC50 light) is more than 10 µM; at human recombinant HDAC1 (setting [15]), more than 10 µM; at human recombinant HDAC1 (setting [16]), more than 10 µM; at human recombinant HDAC1 (setting [11]), more than 10 µM. In addition, in data set [2] (setting [12]), the “% cis at λcis” value was 64%. Also, the “% trans at λtrans” value in data set [2] (setting [13]) is reported as 62%. The λcis in data set [1] (setting [14]) turned out to be 380 nm. In data set [1] (setting [14]), the λmax cis came out at 464 nm. In data set [1] (setting [14]), this compound gave a λmax trans of 396 nm. The compound further came in with a λtrans in data set [1] (setting [14]) of 455 nm.

In the case of `CN(C)c1cc(F)c(/N=N/c2c(F)cc(/C=C/C(=O)Nc3ccccc3N)cc2F)c(F)c1` [Compound 33a, (E)-N-(2-Aminophenyl)-3-(4-((E)-(4-(dimethylamino)-2,6-difluorophenyl)diazenyl)-3,5-difluorophenyl)acrylamide], the “activity under dark and illumination conditions” value in the data set on HeLa cells was “inactive”. Also, on human recombinant HDAC1 (10 μM, dark), the “activity at the highest tested concentration in the dark” value is on record as “no or little activity”. Further, the “IC50(dark)/IC50(light)” value at human recombinant HDAC1 (Table 4) was more than 8.3. Further, the “IC50 under illumination, in words” value at human recombinant HDAC1 (continuous illumination) is on record as “low micromolar range”. In data set [1] (setting [14]), this compound displayed a λcis of 420 nm, a λmax trans of 430 nm and a λtrans of 550 nm.

Consider `CN(C)c1cc(Cl)c(/N=N/c2c(Cl)cc(/C=C/C(=O)Nc3ccccc3N)cc2Cl)c(Cl)c1` [Compound 33b, (E)-N-(2-Aminophenyl)-3-(3,5-dichloro-4-((E)-(2,6-dichloro-4-(dimethylamino)phenyl)diazenyl)phenyl)acrylamide], for which the “activity under dark and illumination conditions” value in the data set with HeLa cells was “inactive”. For the same compound, the “IC50(dark)/IC50(light)” value at human recombinant HDAC1 (Table 4) was more than 2. At human recombinant HDAC1 (setting [15]), the IC50 was more than 10 µM. In data set [1] (setting [14]), the λcis worked out at 420 nm, the λmax trans came to 412 nm and the λtrans was 550 nm.

For `COc1cc(Cl)c(/N=N/c2c(Cl)cc(C(=O)Nc3ccccc3N)cc2Cl)c(Cl)c1` [Compound 38b, (E)-N-(2-Aminophenyl)-3,5-dichloro-4-((2,6-dichloro-4-methoxyphenyl)diazenyl)benzamide], the “% cis at λcis” value in data set [2] (setting [12]) is 46%. Also, the “% trans at λtrans” value in data set [2] (setting [13]) worked out at 84%. In data set [1] (setting [14]), this compound registered a λcis of 550 nm, a λmax cis of 452 nm, a λmax trans of 336 nm and a λtrans of 455 nm.
